Assays:
[1] = biological target: T1, MLXBIR3SG (Homo sapiens, UniProt Q96CA5, S150G); assay: Fluorescence polarization peptide binding assay; conditions: fluorescence polarization competition; for Ki: Ki determined from the IC50 values; for IC50: MLXBIR3SG at 30 nM, 5 nM AVP-diPhe-FAM probe
T1 sequence (Q96CA5 with tags, fused parts or gaps S150G): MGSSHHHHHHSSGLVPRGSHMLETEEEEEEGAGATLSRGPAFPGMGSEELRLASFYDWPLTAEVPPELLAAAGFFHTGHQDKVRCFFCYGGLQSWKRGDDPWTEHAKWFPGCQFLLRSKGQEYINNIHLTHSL
Description: The improved caspase-9 inhibition of the chimeric BIR domain MLXBIR3SG has been correlated with increased inhibition of doxorubicin-induced apoptosis when transfected into MCF7 cells. Fluorescence Polarization Peptide Binding Assay Polarization experiments were performed on an Analyst HT 96-384 (Molecular Devices Corp.) according to the procedure of […]., Zioncheck, K., Clark, K., Arellano, F., and Bodary., S.(2000) in Proceedings of SPIE : In Vitro Diagnostic Instrumentation (Cohn, G. E., Ed.) pp 128-137, Bellingham, Wash. […] Fluorescence values were plotted as a function of the protein concentration, and the IC50s were obtained by fitting the data to a 4-parameter equation using Kaleidograph software (Synergy software, Reading, Pa.). […] Samples were read after a 10-minute incubation. Fluorescence polarization values were plotted as a function of the antagonist concentration, and the IC50 values were obtained by fitting the data to a 4-parameter equation using Kaleidograph software (Synergy software, Reading, Pa.). Inhibition constants (Ki) for the antagonists were determined from the IC50 values.

[2] = biological target: T1, MLXBIR3SG; assay: TR-FRET peptide binding assay; conditions: TR-FRET competition; 300 nM his-tagged MLXBIR3SG, 200 nM biotinylated SMAC peptide (AVPI)
Description: The improved caspase-9 inhibition of the chimeric BIR domain MLXBIR3SG has been correlated with increased inhibition of doxorubicin-induced apoptosis when transfected into MCF7 cells. TR-FRET Peptide Binding Assay Time-Resolved Fluorescence Resonance Energy Transfer competition experiments were performed on the Wallac Victor2 Multilabeled Counter Reader (Perkin Elmer Life and Analytical Sciences, Inc.) according to the procedures of Kolb et al (Journal of Biomolecular Screening, 1996, 1(4):203). A reagent cocktail containing 300 nM his-tagged MLXBIR3SG; 200 nM biotinylated SMAC peptide (AVPI); 5 μg/mL anti-his allophycocyanin (XL665) (CISBio International); and 200 ng/mL streptavidin-europium (Perkin Elmer) was prepared in reagent buffer (50 mM Tris [pH 7.2], 120 mM NaCl, 0.1% bovine globulins, 5 mM DTT and 0.05% octylglucoside). […] The reagent cocktail was incubated at room temperature for 30 minutes. […] After a 90 minute incubation at room temperature, the fluorescence was read with filters for the excitation of europium (340 nm) and for the emission wavelengths of europium (615 nm) and a allophycocyanin (665 nm). Antagonist data were calculated as a ratio of the emission signal of allophycocyanin at 665 nm to that of the emission of europium at 615 nm (these ratios were multiplied by a factor of 10,000 for ease of data manipulation). The resulting values were plotted as a function of antagonist concentration and fit to a 4-parameter equation using Kaleidograph software (Synergy Software, Reading, Pa.). Indications of antagonist potency were determined from the IC50 values.

Structure (SMILES)	Ki [1] [µM]	IC50 [1] [µM]	IC50 [2] [µM]
C[C@H](N)C(=O)N[C@H](C(=O)N1CCC2CCC(NC(=O)c3cccc4ccccc34)C21)C(C)(C)C (stereo partly drawn) [Compound 13]	–	–	< 10
COc1ccc2ccccc2c1C(=O)NC1CCC2CCN(C(=O)C(NC(=O)C(C)N)C(C)C)C21 (stereo not drawn) [Compound 5]	–	–	< 10
C[C@H](N)C(=O)N[C@H](C(=O)N1CCC2CCC(NC(=O)C(c3ccccc3)c3ccccc3)C21)C(C)(C)C (stereo partly drawn) [Compound 22]	–	–	< 10
CN[C@@H](C)C(=O)N[C@H](C(=O)N1CCC2CCC(NC(=O)C(c3ccccc3)c3ccc(F)cc3)C21)C(C)(C)C (stereo partly drawn) [Compound 4]	< 0.2	< 1	< 10
CNC(C)C(=O)NC(C(=O)N1CCC2CCC(NC(=O)C(c3ccccc3)c3ccccc3)C21)C(C)(C)C (stereo not drawn) [Compound 9]	–	–	< 10
CN[C@@H](C)C(=O)N[C@H](C(=O)N1CCC2CCC(NC(=O)c3cccc4ccccc34)C21)C1CCCCC1 (stereo partly drawn) [Compound 28]	–	–	< 10
CN[C@@H](C)C(=O)N[C@H](C(=O)N1CCC2CCC(NC(=O)C3COc4ccccc43)C21)C(C)(C)C (stereo partly drawn) [Compound 3]	–	–	< 10
CN[C@@H](C)C(=O)N[C@H](C(=O)N1CCC2CCC(NC(=O)c3c(OC)ccc4ccccc34)C21)C(C)(C)C (stereo partly drawn) [Compound 12]	< 0.2	< 1	< 10

The remaining lines, values ahead:

Ki [1] [µM]	IC50 [1] [µM]	IC50 [2] [µM]	Structure (SMILES)
< 0.2	< 1	< 10	CN[C@@H](C)C(=O)N[C@H](C(=O)N1CCC2CCC(NC(=O)c3ccc(C)c4ccccc34)C21)C(C)(C)C (stereo partly drawn) [Compound 6]
< 0.2	< 1	< 10	CN[C@@H](C)C(=O)N[C@H](C(=O)N1CCC2CCC(NC(=O)c3csc4ccccc34)C21)C(C)(C)C (stereo partly drawn) [Compound 16]
–	–	< 10	CN[C@@H](C)C(=O)N[C@H](C(=O)N1CCC2CCC(NC(=O)c3ccccc3)C21)C(C)(C)C (stereo partly drawn) [Compound 14]
–	–	< 10	CN[C@@H](C)C(=O)N[C@H](C(=O)N1CCC2CCC(NC(=O)c3coc4ccccc34)C21)C(C)(C)C (stereo partly drawn) [Compound 11]
< 0.2	< 1	< 10	CN[C@@H](C)C(=O)N[C@H](C(=O)N1CCC2CCC(NC(=O)c3ccc(F)c4ccccc34)C21)C(C)(C)C (stereo partly drawn) [Compound 24]
–	–	< 10	CN[C@@H](C)C(=O)N[C@H](C(=O)N1CCC2CCC(NC(=O)c3cccc4ccccc34)C21)C(C)(C)C (stereo partly drawn) [Compound 21]
